Consider 36 molecules from ChEMBL document CHEMBL4138135, “Optimization of physicochemical properties for 4-anilinoquinazoline inhibitors of trypanosome proliferation” (Eur J Med Chem, 2017).

Usually logD stands for lipophilicity at a set pH, counting ionised and neutral species. In general, logP refers to the decadic logarithm of the partition coefficient of the neutral form, usually between octanol and water.

The nature of series [1]: Distribution coefficient, log D of the compound at pH 7.4. It is filed as physicochemical. The note with it: octanol/water.
Series [2] in a line: Lipophilicity, log P of the compound. The note with it: octanol/water. It is filed as physicochemical.

On to `c1cc(-c2ccc3ncnc(Nc4ccncn4)c3c2)cc(N2CCOCC2)c1`, for which the logD in series [1] (read-out: logD) amounted to 3.1. In addition, the logP in series [2] (read-out: logP) amounted to 3.7. As to `Fc1cccc(COc2ccc(Nc3ncnc4ccc(-c5ccnc(N6CCOCC6)n5)cc34)cc2Cl)c1`, in series [2] (read-out: logP), the logP turned out to be 6.5.

With `Fc1cccc(COc2ccc(Nc3ncnc4ccc(-c5nccc(N6CCOCC6)n5)cc34)cc2Cl)c1`, the lipophilicity (logP) in series [2] (read-out: logP) is 6.5. Consider `O=C(CN1CCOCC1)Nc1ccc2ncnc(Nc3ccc(OCc4cccc(F)c4)c(Cl)c3)c2c1`, for which, in series [1] (read-out: logD), the logD is 4.5. Besides, the logP in series [2] (read-out: logP) is 4.7. In the case of `c1cc(-c2ccc3ncnc(Nc4ccnnc4)c3c2)cc(N2CCOCC2)c1`, the logD in series [1] is recorded as 3.1. The same molecule came in with a logP in series [2] of 2.8. In the case of `O=c1nc(Nc2ncnc3ccc(-c4cccc(N5CCOCC5)c4)cc23)c(F)c[nH]1`, the logD in series [1] (read-out: logD) came out at 2.2. Also, in series [2] (read-out: logP), the logP amounted to 2.7. As to `c1ccc(Nc2ncnc3ccc(-c4cccc(N5CCOCC5)c4)cc23)nc1`, in series [1] (read-out: logD), the logD worked out at 3.9. Further, in series [2] (read-out: logP), the logP came to 4.4. Regarding `COc1cnc(Nc2ncnc3ccc(-c4cccc(N5CCOCC5)c4)cc23)cn1`, the log distribution coefficient (logD) in series [1] (read-out: logD) worked out at 3.8. Besides, the logP in series [2] (read-out: logP) was determined as 3.6. On to `c1cc(-c2ccc3ncnc(Nc4nccnn4)c3c2)cc(N2CCOCC2)c1`, for which the logP in series [2] (read-out: logP) is 2.8. For the molecule `Fc1cccc(COc2ccc(Nc3ncnc4ccc(-n5nncc5CN5CCOCC5)cc34)cc2Cl)c1`, in series [2] (read-out: logP), the logP was 5.1. Regarding `c1cnc(Nc2ncnc3ccc(-c4ccnc(N5CCOCC5)n4)cc23)nc1`, the log distribution coefficient (logD) in series [1] (read-out: logD) came to 2.5. Further, the logP in series [2] (read-out: logP) worked out at 2.9. Regarding `Cc1ccnc(Nc2ncnc3ccc(-c4cccc(N5CCOCC5)c4)cc23)n1`, in series [1] (read-out: logD), the logD was found to be 2.9. In addition, the logP in series [2] (read-out: logP) stood at 3.9. As to `Fc1cccc(COc2ccc(Nc3ncnc4ccc(-c5nnc(N6CCOCC6)[nH]5)cc34)cc2Cl)c1`, the logP in series [2] (read-out: logP) is 5.3.

Consider `Cc1cnnc(Nc2ncnc3ccc(-c4cccc(N5CCOCC5)c4)cc23)c1`, for which, in series [2] (read-out: logP), the logP amounted to 3.9.

With `c1cc(-c2ccc3ncnc(Nc4cncs4)c3c2)cc(N2CCOCC2)c1`, the logP in series [2] (read-out: logP) turned out to be 3.8.

In turn, `c1cc(Nc2ncnc3ccc(-c4ccnc(N5CCOCC5)n4)cc23)ccn1` returned a logD in series [1] of 3.8. The molecule further yielded a logP in series [2] of 2.9.

With `CC(=O)Nc1cccnc1Nc1ncnc2ccc(-c3cccc(N4CCOCC4)c3)cc12`, in series [1] (read-out: logD), the pH-dependent lipophilicity (logD) turned out to be 3.2. For the same molecule, the log partition coefficient (logP) in series [2] (read-out: logP) was determined as 3.6. Regarding `CCn1nccc1Nc1ncnc2ccc(-c3cccc(N4CCOCC4)c3)cc12`, the logD in series [1] (read-out: logD) came to 3.2. Moreover, the logP in series [2] (read-out: logP) was 3.9. `c1cc(-c2ccc3ncnc(Nc4nncs4)c3c2)cc(N2CCOCC2)c1`: in series [2] (read-out: logP), the logP is 3.5. `c1cc(-c2ccc3ncnc(Nc4cnccn4)c3c2)cc(N2CCOCC2)c1`: the logD in series [1] (read-out: logD) is 3.1. In series [2] (read-out: logP), the logP was found to be 3.2. With `c1cc(-c2ccc3ncnc(Nc4ncco4)c3c2)cc(N2CCOCC2)c1`, the logP in series [2] (read-out: logP) is 3.6. `Cc1nnc(Nc2ncnc3ccc(-c4cccc(N5CCOCC5)c4)cc23)nc1C`: the logD in series [1] (read-out: logD) stood at 2.8. In addition, the logP in series [2] (read-out: logP) was 3.

For the molecule `O=c1nc(Nc2ncnc3ccc(-c4cccc(N5CCOCC5)c4)cc23)cc[nH]1`, the logP in series [2] (read-out: logP) was 2.5. As to `c1cc(-c2ccc3ncnc(Nc4cccnn4)c3c2)cc(N2CCOCC2)c1`, the logD in series [1] (read-out: logD) came to 3. Further, in series [2] (read-out: logP), the logP was found to be 3.4.

`c1cc(-c2ccc3ncnc(Nc4nccs4)c3c2)cc(N2CCOCC2)c1`: the log partition coefficient (logP) in series [2] (read-out: logP) was 4.3. Turning to `c1cc(-c2ccc3ncnc(Nc4cncnc4)c3c2)cc(N2CCOCC2)c1`, the logD in series [1] (read-out: logD) turned out to be 3.2. For the same molecule, the logP in series [2] (read-out: logP) turned out to be 3.1. For the molecule `c1cnc(Nc2ncnc3ccc(-c4cccc(N5CCOCC5)c4)cc23)nc1`, the log distribution coefficient (logD) in series [1] (read-out: logD) was found to be 2.5. The logP in series [2] (read-out: logP) was 3.8. Regarding `c1cnc(Nc2ncnc3ccc(-c4nccc(N5CCOCC5)n4)cc23)nc1`, the logD in series [1] (read-out: logD) is 2. Further, the lipophilicity (logP) in series [2] (read-out: logP) was found to be 2.9.

As to `Nc1ncccc1Nc1ncnc2ccc(-c3cccc(N4CCOCC4)c3)cc12`, in series [1] (read-out: logD), the logD was 2.9. Further, in series [2] (read-out: logP), the logP was 3.5.

With `c1cncc(Nc2ncnc3ccc(-c4cccc(N5CCOCC5)c4)cc23)c1`, the logD in series [1] (read-out: logD) is 3.9. The logP in series [2] (read-out: logP) came to 3.8. `c1cc(Nc2ncnc3ccc(-c4nccc(N5CCOCC5)n4)cc23)ccn1` showed a logD in series [1] of 3.4. The logP in series [2] is on record as 3.

For `Nc1cccnc1Nc1ncnc2ccc(-c3cccc(N4CCOCC4)c3)cc12`, the logD in series [1] (read-out: logD) is 2.8. In addition, in series [2] (read-out: logP), the logP came to 3.5. The corresponding values for `c1cc(-c2ccc3ncnc(Nc4ccncc4)c3c2)cc(N2CCOCC2)c1` are 4.1 and 3.8.

As to `Cc1cnc(Nc2ncnc3ccc(-c4cccc(N5CCOCC5)c4)cc23)s1`, the logP in series [2] (read-out: logP) is 5.

For `Cc1cc(Nc2ncnc3ccc(-c4cccc(N5CCOCC5)c4)cc23)on1`, in series [2] (read-out: logP), the log partition coefficient (logP) amounted to 3.6.

`COc1ccc(Nc2ncnc3ccc(-c4cccc(N5CCOCC5)c4)cc23)cc1Cl`: the logP in series [2] (read-out: logP) stood at 5.4.
